Results from patent US8101389B2, “Bacterial glutamine synthetases and methods of use” (Athenix Corp, priority 2006, dated 2012).
“Also recorded” adds a separate entry of the source.

Assays:
ATX 20345 = assay: Growth of strain ATX 20345 in minimal medium with glufosinate; assay type: cell-based, Serratia marcescens; conditions: no other nitrogen source, 21° C.
Protocol: (§1) A glufosinate resistant bacterial strain (ATX 20345) was isolated from a soil sample via a soil suspension by placing approximately 0.01 grams soil in 500 μl sterile water. The soil suspension was vortexed, and 20 μl was used to inoculate a 2.5 ml minimal medium culture supplemented with 5 mM glufosinate (Riedel-de Habël, available through Sigma-Aldrich, St. Louis, Mo.). The minimal medium contains the following ingredients (per 1 liter): 10 grams sucrose, 1 ml 0.8M MgSO4, 1 ml 0.1M CaCl2, 1 ml trace elements, 2.38 grams KH2PO4, 5.64 grams K2HPO4. The pH is adjusted to 7.0, and the solution is sterilized with a 0.2 μm filter. Trace elements consist of (per 100 ml) 0.1 g FeSO4.7H2O, 0.5 mg CuSO4.5H2O, 1.0 mg H3BO3, 1.0 mg MnSO4.5H2O, 7.0 mg ZnSO4.7H2O, 1.0 mg MoO3, 4.0 g KCl. No additional nitrogen source was provided in the medium. Cultures were grown at 21° C. on a rotary shaker for 3 days then transferred to fresh minimal medium containing 5 mM glufosinate and incubated at 21° C. After 2 days, the cultures were used to inoculate fresh minimal medium with 5 mM glufosinate. After 2 days, the cultures were plated onto Luria Bertani (LB) agar and then restruck for isolation. […] Colonies on LB agar are pinkish-red, raised, circular, and 1-2 mm in diameter. ATX20345 was typed by fatty acid analysis (as known in the art), and determined to be a strain of Serratia marcescens. […]

[1] = test system: Serratia marcescens ATX 20345; assay: growth of strain ATX 20345 in glufosinate; assay type: cell-based; conditions: minimal medium; growth above 50 mM was not tested
Protocol: as §1

[2] = target: Serratia marcescens glutamine synthetase AGS1 variant AGS1m1 (pAX3421), V39I, V214M, SEQ ID NO:4 (Serratia marcescens, UniProt A0A0F6KS08, V214M/V39I); assay: enzymatic assay of purified 6Xhis AGS1m1 with glufosinate; assay type: biochemical; conditions: 100 uM glufosinate
Excerpt: (§2) ags1m1 (pAX3421) and ags1m2 (pAX3422) were subcloned into E. coli expression vector pRSF1B (Invitrogen) so as to create an N-terminus encoding a 6Xhis tag, purified and characterized kinetically.

[3] = test system: E. coli cells with AGS1 variant AGS1m17, F81S, P185S, H212T, V214A, G218S, I303N, SEQ ID NO:34; assay: growth of E. coli on glufosinate plates, ags1m17; assay type: cell-based
Protocol: (§3) Clones expressing AGS1m17, AGS1m18, AGS1m19, or AGS1m20 were all found to be able to grow on plates containing 375 mM glufosinate, whereas no growth of clones expressing AGS1m16 was observed on plates containing 375 mM glufosinate.

[4] = test system: E. coli cells with AGS1 variant AGS1m1 (pAX3421), V39I, V214M, SEQ ID NO:4; assay: growth of E. coli on glufosinate plates, ags1m1; assay type: cell-based
Protocol: (§4) Mutants of the bacterial glutamine synthetase gene ags1 (SEQ ID NO:1) were created by error-prone mutagenesis using the GENEMORPH® Random Mutagenesis kit, and also using oligo-directed mutagenesis as known in the art. However, many methods are available for creating libraries of mutants. The resulting mutants were cloned into a pUC19 vector, electroporated into either XL-1 or DH5 alpha E. coli cells, and selected for growth on M63+ agar media containing antibiotic and 2, 10, or 20 mM glufosinate. Twenty-two clones were identified as growing on 20 mM glufosinate, and picked for further analysis.
(§5) ags1m2 was mutagenized by error-prone mutagenesis using GENEMORPH® II Random Mutagenesis kit (Stratagene) according to manufacturer's instructions. Mutagenized PCR product was digested with Sac I and Hind III, and ligated into a pUC vector, similarly digested with Sac I and Hind III. Ligations were transformed into E. coli cells, and plated onto M63+ plates containing antibiotic, and 125 mM glufosinate. Clones growing on 125 mM glufosinate plates were retested on 200 mM glufosinate plates, and compared to similar platings of ags1m1 and ags1m2. […] The DNA sequence of the ags open reading frame in pAX3439 was sequenced, and the gene designated as ags1m16. The DNA sequence of ags1m16 is represented herein as SEQ ID NO:31, and the amino acid sequence is represented herein as SEQ ID NO:32. […]

[5] = test system: ags1 glutamine synthetase enzyme; assay: Enzymatic activity of purified 6Xhis-tagged glutamine synthetases with and without glufosinate; assay type: biochemical, Serratia marcescens; conditions: 100 uM glufosinate
Excerpt: as §2

[6] = test system: E. coli cells with AGS1 variant AGS1m2 (pAX3422), F81S, P185S, G218S, I303N, SEQ ID NO:6; assay: growth of E. coli on herbicide plates, ags1m2; assay type: cell-based; conditions: 200 mM glufosinate
Protocol: as §4, §5

[7] = test system: E. coli cells with AGS1 variant AGS1m18, F81S, P185S, H212T, V214S, G218S, I303N, SEQ ID NO:36; assay: growth of E. coli on glufosinate plates, ags1m18; assay type: cell-based
Protocol: as §3

[8] = target: Serratia marcescens glutamine synthetase AGS1 variant AGS1m17(AD-), F81S, P185S, H212T, V214A, G218S, I303N plus tyrosine 398 to phenylalanine, SEQ ID NO:46 (Serratia marcescens, UniProt A0A0F6KS08, F81S/G218S/H212T/I303N/P185S/V214A/Y398F); assay: enzymatic assay, kinetics of AGS1m17(AD-); assay type: biochemical
Protocol: ags1m17(ad-) (SEQ ID NO:45) encoding the AGS1m17(AD-) protein (SEQ ID NO:46), is a variant of ags1m17 in which the putative adenylylation site has been removed by mutating the tyrosine at position 398 of AGS1 to a phenylalanine by site directed mutagenesis.
The unmodified enzyme (AGS1) was compared to AGS1(AD-) and AGS1m17(AD-) by carrying out enzymatic assays on both enzymes following purification from E. coli. A glutamine synthetase enzyme from E. coli (GlnA) was also tested.

[9] = test system: E. coli cells with AGS1 variant AGS1m16 (pAX3439), F81S, P185S, H212N, G218S, I303N, SEQ ID NO:32; assay: growth of E. coli on glufosinate plates, ags1m16; assay type: cell-based
Protocol: ags1m2 was mutagenized by error-prone mutagenesis using GENEMORPH® II Random Mutagenesis kit (Stratagene) according to manufacturer's instructions. Mutagenized PCR product was digested with Sac I and Hind III, and ligated into a pUC vector, similarly digested with Sac I and Hind III. Ligations were transformed into E. coli cells, and plated onto M63+ plates containing antibiotic, and 125 mM glufosinate. Clones growing on 125 mM glufosinate plates were retested on 200 mM glufosinate plates, and compared to similar platings of ags1m1 and ags1m2. […] The DNA sequence of the ags open reading frame in pAX3439 was sequenced, and the gene designated as ags1m16. The DNA sequence of ags1m16 is represented herein as SEQ ID NO:31, and the amino acid sequence is represented herein as SEQ ID NO:32. AGS1m16 differs from AGS1m2 at a single amino acid at position H212 of the protein, which is modified from Histidine (‘H’) to Asparagine (‘N’), and contains a total of five amino acid changes relative to the wild-type AGS1 (see FIG. 1 and Table 3).
as §3

Serratia marcescens glutamine synthetase AGS1 variant AGS1m17(AD-), F81S, P185S, H212T, V214A, G218S, I303N plus tyrosine 398 to phenylalanine, SEQ ID NO:46, sequence (A0A0F6KS08 whole entry F81S/P185S/H212T/V214A/G218S/I303N/Y398F): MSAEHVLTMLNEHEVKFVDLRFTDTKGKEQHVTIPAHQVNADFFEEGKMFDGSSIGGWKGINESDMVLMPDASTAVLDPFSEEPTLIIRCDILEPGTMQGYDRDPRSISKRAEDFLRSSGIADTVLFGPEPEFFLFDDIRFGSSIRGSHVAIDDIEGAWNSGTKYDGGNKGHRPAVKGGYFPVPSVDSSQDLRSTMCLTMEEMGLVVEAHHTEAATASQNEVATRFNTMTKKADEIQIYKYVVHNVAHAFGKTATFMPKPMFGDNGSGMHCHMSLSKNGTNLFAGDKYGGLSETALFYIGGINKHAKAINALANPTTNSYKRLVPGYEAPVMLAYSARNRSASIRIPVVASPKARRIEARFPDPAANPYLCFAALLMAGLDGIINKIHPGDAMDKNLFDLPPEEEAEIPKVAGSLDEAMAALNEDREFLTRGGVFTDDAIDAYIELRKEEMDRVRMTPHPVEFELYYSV
Serratia marcescens glutamine synthetase AGS1 variant AGS1m1 (pAX3421), V39I, V214M, SEQ ID NO:4, sequence (A0A0F6KS08 whole entry V39I/V214M): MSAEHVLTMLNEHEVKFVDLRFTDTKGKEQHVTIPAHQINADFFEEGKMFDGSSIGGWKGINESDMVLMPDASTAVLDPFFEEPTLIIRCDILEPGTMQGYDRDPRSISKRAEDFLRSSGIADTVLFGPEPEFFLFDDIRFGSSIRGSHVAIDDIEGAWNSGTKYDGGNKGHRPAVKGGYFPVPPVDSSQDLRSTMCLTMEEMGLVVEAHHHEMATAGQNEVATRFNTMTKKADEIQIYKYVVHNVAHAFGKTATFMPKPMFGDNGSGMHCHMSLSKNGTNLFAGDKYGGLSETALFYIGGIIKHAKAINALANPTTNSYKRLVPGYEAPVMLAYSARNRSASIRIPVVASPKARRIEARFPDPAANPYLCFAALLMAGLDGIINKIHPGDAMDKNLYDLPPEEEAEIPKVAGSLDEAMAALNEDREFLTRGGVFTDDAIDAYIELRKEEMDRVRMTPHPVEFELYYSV

CP(=O)(O)CCC(N)C(=O)O (centres unmarked) [glufosinate]
growth of ATX 20345 in the presence of glufosinate (ATX 20345): ability to grow in the presence of 5 mM glufosinate; also recorded: grows well through 50 mM | glufosinate concentration through which ATX 20345 grows well [1]: ≥ 50 mM | activity in the presence of glufosinate [2]: showed activity | growth on plates containing 375 mM glufosinate [3]: able to grow | growth on 200 mM glufosinate plates ([4]; 200 mM glufosinate): did not grow | growth on glufosinate minimal M63+ agar media ([4]; 2, 10, 20, 50, and 100 mM, DH5a, Clone 2): shown to grow | inhibition of wild type ags1 glutamine synthetase enzyme [5]: completely inhibited | growth on 200 mM glufosinate plates [6]: did not grow | growth on plates containing 375 mM glufosinate [7]: able to grow | Ki [8]: 23 mM | (Kcat*Ki)/Km ([8]; Table 5, Km glutamate, Ki glufosinate): 110.04 | growth on 200 mM glufosinate plates ([9]; 200 mM glufosinate): ability to grow | growth on plates containing 375 mM glufosinate ([9]; 375 mM glufosinate): no growth | glufosinate concentrations up to which cells are able to grow ([9]; cells containing AGS1m16): 200 mM
